We go through 1 substance from patent US20240060999A1, “BLOOD COAGULATION INSPECTION METHOD” (FUJIMORI KOGYO CO., LTD, priority 2020, published 2024).

The assay has as its system whole blood. Kind of assay: ROTEM whole blood coagulation with dialyzed Dade Innovin (recombinant tissue factor) 0.569 μg/mL + Ca 12 mM + CTI 20 μg/mL + PKSI-527 40 μM. Type of assay: cell-based. Particulars: Ex26; for CT (clotting time): Innovin 0.569 μg/mL+Ca+CTI+PKSI-527, heparan sulfate 2 μg/mL. How it is done:
ROTEM was used to analyze blood coagulation.
Blood was collected using a blood collection tube containing 3.2% sodium citrate manufactured by Terumo Corporation.
Blood coagulation was analyzed in the case of having added 4% (final concentration 0.569 μg/mL) of Dade Innovin (recombinant tissue factor: Sysmex Corporation) having being diluted by 50 times after dialysis, calcium chloride (Ca; final concentration 12 mM), heparan sulfate (final concentration 0 or 2 μg/mL), CTI (final concentration 20 μg/mL), PKSI-527 (final concentration 40 μM) without and with a soluble thrombomodulin (rTM: final concentration 30 nM) further having been added, as well as with an APC inhibitory aptamer (HS02-44G; final concentration 1 μM) in addition to 30 nM of soluble thrombomodulin.
Blood coagulation was analyzed in the case of having added 4% (final concentration 0.569 μg/mL) of 50-fold diluted Dade Innovin (recombinant tissue factor: Sysmex Corporation) after dialysis, calcium chloride (Ca; final concentration 12 mM), low molecular weight heparan (trade name FRAGMIN; Pfizer) (final concentration 0 or 0.2 U/mL), CTI (final concentration 20 μg/mL), and PKSI-527 (final concentration 40 μM) with and without a soluble thrombomodulin (rTM; final concentration 30 nM) further having been added, as well as with an APC inhibitory aptamer (HS02-44G; final concentration 1 μM) in addition to 30 nM soluble thrombomodulin.
ROTEM was used to analyze coagulation.
Blood coagulation was analyzed in the case of having added 4% (final concentration 0.569 μg/mL) of 50-fold diluted Dade Innovin (recombinant tissue factor: Sysmex Corporation) after dialysis, calcium chloride (Ca; final concentration 12 mM), ARIXTRA (final concentration 0 or […]), CTI (final concentration 20 μg/mL), and PKSI-527 (final concentration 40 μM), without and with thrombomodulin (rTM; final concentration 30 nM) further having been added, as well as with an APC inhibitory aptamer (HS02-44G; final concentration 1 μM) in addition to soluble thrombomodulin 30 nM.

With Heparan sulfate, the “CT (clotting time)” value by setting is: (no rTM) 410 s; (rTM 30 nM) 904 s; (rTM 30 nM+APC inhibitory aptamer 1 μM) 643 s. Further, where the note is “addition of heparan sulfate 2 μg/mL, rTM 30 nM”, the “anticoagulation ability of the soluble thrombomodulin” value is “markedly enhanced”.
